The values below come from ChEMBL document CHEMBL1201862, “PubChem BioAssay data set” (2004).

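Test compounds were applied to cells in 96-well plates for 48 hours at 5 doses. GI50 marks 50% less growth.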 Calls of active or inactive are those of the source. No stated cut-off is given here; in the data, active = GI50 up to about 1.1 µM and inactive = higher. Some results are limits rather than exact numbers.

Some test systems named below: A498; Hs-578T; M14; MCF7; MOLT-4; PC-3; SF-295; SK-MEL-2; SN12C; SR; U-251; UACC-257; CCRF-CEM; COLO 205; IGROV-1; Malme-3M; SK-OV-3; SNB-75; SF-539.
Holding throughout (experiment): NCI anticancer screen, dose series, 48 h

For `O=c1oc2ccc3ccccc3c2cc1-c1nnc(Nc2ccccc2)s1`, the GI50 in the assay with A498 is 1.27 µM (inactive); in the assay on Hs-578T, 65 µM (inactive); in the assay with M14, 37.2 µM (inactive); with MCF7 it was 34.8 µM (inactive); in the assay on MOLT-4 it was 0.757 µM (active); in the assay with PC-3, 17.1 µM (inactive). The GI50 with SF-295 was 65.3 µM (inactive); in the assay on SK-MEL-2 it was 18.9 µM (inactive); in the assay with SN12C it was 50.8 µM (inactive); in the assay on SR it was 19.3 µM (inactive); in the assay on U-251, 7.59 µM (inactive); in the assay on UACC-257 it was > 100 µM (inactive).

Consider `CC#Cc1cc2c(cc1O)CC[C@@H]1[C@@H]2CC[C@]2(C)[C@@H](O)CC[C@@H]12`, for which the GI50 is 5.28 µM (inactive) with A498; 0.684 µM (active) in the assay on CCRF-CEM; 17.7 µM (inactive) in the assay on COLO 205; 1.11 µM (active) with Hs-578T; 4.54 µM (inactive) in the assay on IGROV-1; 0.521 µM (active) in the assay on M14. Besides, the GI50 with MCF7 is 0.685 µM (active); in the assay with MOLT-4, 0.621 µM (active); in the assay on Malme-3M, 0.582 µM (active); in the assay with PC-3 it was 3.92 µM (inactive); in the assay on SF-295 it was 0.406 µM (active); in the assay on SK-MEL-2 it was 1.06 µM (active). The GI50 in the assay with SK-OV-3 is 1.81 µM (inactive); in the assay on SN12C, 6.15 µM (inactive); in the assay with SNB-75, 1.4 µM (inactive); in the assay on SR, 0.288 µM (active); with U-251, 0.748 µM (active); in the assay with UACC-257 it was 1.76 µM (inactive).

With `Cc1c(-c2ccccc2)c(C#N)c2nnc(C(N)=O)c(N)n12`, the GI50 in the assay with A498, with CCRF-CEM, with COLO 205, in the assay with Hs-578T, with IGROV-1 and with M14 was > 100 µM (inactive) in each case. Moreover, the GI50 in the assay on MCF7, in the assay with MOLT-4, in the assay with Malme-3M, in the assay on PC-3, with SF-295 and in the assay with SF-539 was > 100 µM (inactive) in each case. For the same compound, the GI50 in the assay on SK-MEL-2 is > 100 µM (inactive); with SK-OV-3 it was 70.5 µM (inactive); in the assay with SN12C, > 100 µM (inactive); with SR, > 100 µM (inactive); in the assay with U-251 it was > 100 µM (inactive); in the assay with UACC-257 it was > 100 µM (inactive).

As to `CCn1nc2c3c(ncn3C(C)(C)O2)c1=O`, the GI50 with A498, with CCRF-CEM, in the assay on COLO 205, in the assay on Hs-578T, in the assay on IGROV-1 and in the assay on M14 was > 100 µM (inactive) throughout. For the same compound, the GI50 in the assay on MCF7, with MOLT-4, with Malme-3M, in the assay with PC-3, in the assay with SF-295 and with SK-MEL-2 was > 100 µM (inactive) in each case. In addition, the GI50 with SK-OV-3, in the assay with SN12C, in the assay on SR, in the assay on U-251 and in the assay with UACC-257 was > 100 µM (inactive) throughout.

Take `O=Cc1c2n(c3ccccc13)N[C@@](Cc1ccc(O)cc1)(C(=O)O)C2`: the GI50 in the assay with A498 was > 100 µM (inactive); in the assay with CCRF-CEM it was 34.5 µM (inactive); in the assay with COLO 205 it was > 100 µM (inactive); in the assay with Hs-578T, > 100 µM (inactive); in the assay on IGROV-1 it was > 100 µM (inactive); in the assay with M14, 65.6 µM (inactive). Also, the GI50 was 55.5 µM (inactive) with MCF7; 60.3 µM (inactive) in the assay on MOLT-4; 60.3 µM (inactive) in the assay with Malme-3M; 81.7 µM (inactive) in the assay with PC-3; 63.2 µM (inactive) in the assay on SF-295; > 100 µM (inactive) in the assay on SF-539. Further, the GI50 with SK-MEL-2 is > 100 µM (inactive); in the assay on SK-OV-3 it was 77.3 µM (inactive); with SR it was 38.1 µM (inactive); with U-251, > 100 µM (inactive); in the assay with UACC-257, 31 µM (inactive).

Turning to `CN1CCN(Cc2ccc(C(=S)Nc3ccccc3)s2)CC1`, the GI50 is 33.7 µM (inactive) in the assay on A498; 24 µM (inactive) in the assay on CCRF-CEM; 22.3 µM (inactive) in the assay on COLO 205; 39.2 µM (inactive) in the assay with Hs-578T; 10.4 µM (inactive) in the assay on IGROV-1; 16.7 µM (inactive) in the assay on M14. Further, the GI50 in the assay with MCF7 was 41.9 µM (inactive); in the assay on MOLT-4 it was 36.8 µM (inactive); in the assay with Malme-3M, 89.5 µM (inactive); in the assay on PC-3 it was 69.7 µM (inactive); in the assay on SF-295, 32.3 µM (inactive); with SF-539, 82.4 µM (inactive). Also, the GI50 in the assay with SK-MEL-2 is 41.8 µM (inactive); in the assay on SK-OV-3, 86.1 µM (inactive); in the assay on SR, 21.2 µM (inactive); in the assay on U-251 it was 64.7 µM (inactive); with UACC-257, 33.5 µM (inactive).

As to `O=S(=O)(/N=C1/S/C(=N\c2ccccc2)N(c2ccccc2)/C1=N/S(=O)(=O)c1ccccc1)c1ccccc1`, the GI50 with A498 is 11.4 µM (inactive); with CCRF-CEM, 28.7 µM (inactive); with COLO 205 it was 26.9 µM (inactive); with Hs-578T it was 29.6 µM (inactive); in the assay on IGROV-1 it was 20.5 µM (inactive); in the assay with M14, 20.4 µM (inactive). The GI50 was 20.5 µM (inactive) with MCF7; 21.4 µM (inactive) in the assay with MOLT-4; 22.5 µM (inactive) with Malme-3M; > 10 µM (inactive) in the assay on PC-3; 15.2 µM (inactive) with SK-MEL-2; 12.4 µM (inactive) in the assay on SN12C. Also, the GI50 was 20.7 µM (inactive) with SNB-75, 18.1 µM (inactive) in the assay with SR, 22.3 µM (inactive) in the assay with U-251 and 19.1 µM (inactive) in the assay on UACC-257.

For the compound `Nc1nc(NCC2(CO)CCC2)cc(=O)[nH]1`, the GI50 in the assay on A498, with CCRF-CEM, with COLO 205, in the assay on Hs-578T, in the assay with IGROV-1 and in the assay with M14 was > 100 µM (inactive) in each case. The GI50 in the assay on MCF7, with MOLT-4, with Malme-3M, in the assay with PC-3, with SF-295 and in the assay on SK-MEL-2 was > 100 µM (inactive) each time. Besides, the GI50 in the assay with SK-OV-3, with SN12C, with SNB-75, in the assay with SR, with U-251 and with UACC-257 was > 100 µM (inactive) each time.

`COc1ccc(CN2C[C@H]3[C@@H](CC(=O)O[C@H]3C)CC2=O)cc1`: the GI50 in the assay with A498, in the assay with CCRF-CEM, in the assay on COLO 205, in the assay with Hs-578T, in the assay with IGROV-1 and with M14 was > 100 µM (inactive) throughout. Further, the GI50 in the assay with MCF7, in the assay with MOLT-4, in the assay on Malme-3M, in the assay on PC-3, in the assay on SF-295 and in the assay on SK-MEL-2 was > 100 µM (inactive) each time. The GI50 in the assay on SK-OV-3, with SNB-75, with SR, in the assay with U-251 and in the assay on UACC-257 was > 100 µM (inactive) throughout.

In the case of `CCOC(=O)c1cc2cc3c4c(c2oc1=O)CCCN4CCC3`, the GI50 is 17.6 µM (inactive) in the assay on A498; 29.4 µM (inactive) in the assay with CCRF-CEM; 24.7 µM (inactive) in the assay with COLO 205; 25 µM (inactive) with Hs-578T; 27.2 µM (inactive) with IGROV-1; 32.3 µM (inactive) in the assay with M14. For the same compound, the GI50 was 23.2 µM (inactive) in the assay on MCF7; 25.8 µM (inactive) in the assay on MOLT-4; 49.3 µM (inactive) in the assay with Malme-3M; 29 µM (inactive) in the assay with PC-3; 40.4 µM (inactive) in the assay with SF-295; 23.5 µM (inactive) in the assay on SF-539. For the same compound, the GI50 is 24.7 µM (inactive) in the assay on SK-MEL-2; 30.8 µM (inactive) in the assay with SN12C; 22.8 µM (inactive) in the assay with SR; 28.8 µM (inactive) in the assay with U-251; 49.5 µM (inactive) with UACC-257.

With `N#Cc1c(O)nc2nn3c4ccc5ccccc5c4nnc3c2c1-c1ccc(Cl)cc1`, the GI50 was 1.58 µM (inactive) with A498; 1.56 µM (inactive) with CCRF-CEM; 2.24 µM (inactive) with COLO 205; 2.76 µM (inactive) in the assay on Hs-578T; 1.2 µM (inactive) with IGROV-1; 2.38 µM (inactive) in the assay with M14. Further, the GI50 in the assay on MCF7 is 1.75 µM (inactive); in the assay on MOLT-4 it was 2.4 µM (inactive); in the assay with Malme-3M it was 1.93 µM (inactive); in the assay on PC-3, 2.43 µM (inactive); with SF-295 it was 1.84 µM (inactive); with SF-539 it was 1.96 µM (inactive). The GI50 is 1.9 µM (inactive) in the assay on SK-MEL-2; 3.3 µM (inactive) in the assay on SK-OV-3; 3.34 µM (inactive) in the assay on SN12C; 0.675 µM (active) in the assay on SR; 2.12 µM (inactive) in the assay on U-251; 3.58 µM (inactive) with UACC-257.

On to `O=S(=O)(O)c1ccc(NN(c2c(O)ccc3ccccc23)S(=O)(=O)O)cc1`, for which the GI50 with A498, in the assay on CCRF-CEM, in the assay on COLO 205, in the assay on Hs-578T, in the assay on IGROV-1 and with M14 was > 100 µM (inactive) throughout. In addition, the GI50 in the assay with MCF7, with MOLT-4, in the assay on Malme-3M, with PC-3, in the assay with SF-295 and in the assay with SF-539 was > 100 µM (inactive) in each case. In addition, the GI50 in the assay on SK-MEL-2, with SK-OV-3, in the assay with SN12C, with SR, in the assay on U-251 and with UACC-257 was > 100 µM (inactive) each time.
